Source: patent publication US20080063628A1, “METHODS TO PROMOTE CELL DIFFERENTIATION” (priority 2006, published 2008)

System: early passage (P5) pancreatic-derived stromal cell line
Assay: Two high dose trichostatin A treatments (first 48 h), gene expression by RT-PCR (Example 9);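 as to HNF-3 beta RT-PCR detection cycle: lower cycle number means higher gene expression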;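 as to glucagon RT-PCR detection cycle: lower cycle number means higher gene expression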
Type: cell-based, human
Settings: for HNF-3 beta gene expression / Insulin gene expression / Pdx-1 gene expression / glucagon gene expression: 5 μM 0-48 h + 96-120 h
Protocol: Several cell lines obtained from different amniotic fluid specimens (see Example 14) and pancreas donors (see Example 13) were tested with similar results. Two lines at similar passage number but derived from different amniotic fluid specimens are shown in Table VIII-A and Table VIII-B for this example. One of these cell lines was also used in examples 2 and 4 above. In addition, this example also contains comparison data in Table VIII-C and Table VIII-D for a single pancreatic-derived stromal line grown to early and late passage number.
Amniotic fluid derived cells or pancreatic-derived stromal cells were seeded into 24-well tissue culture plates at a density of 5000/cm^2 and cultured in AMNIOMAX (Invitrogen) or DMEM with 10% FBS respectively under standard cell culture conditions until confluent. After reaching confluence, amniotic fluid derived cells were treated at time 0 hours with a dose of 1.25 μM trichostatin A, and pancreatic-derived stromal cells were treated with a dose of 5.0 μM trichostatin A solubilized in DMSO and medium. At time 48 hours, cell cultures underwent a complete medium change to remove all traces of trichostatin A. At time 96 hours, cell cultures were re-fed with fresh medium and received a second dose of trichostatin A at the same concentration as used previously. At time 120 hours, cell cultures again underwent a complete medium change and were cultured for an additional 24 hours or […] total incubation time. Samples were taken for RT-PCR at the times indicated in Table IX-A to D. RNA samples were obtained daily from the start of the experiment. Culture medium was removed, and cells were washed with PBS then collected in RLT with β-mercaptoethanol (Qiagen). RNA was purified using the RNeasy Mini Kit (Qiagen) and RNA quantity and quality was determined using a spectrophotometer. cDNA was made using the iScript cDNA synthesis kit (BioRad). Human pancreas cDNA was included as a control. Results were normalized against GAPDH expression levels.
Gene expression levels of Sox17, HNF-3 beta, Pdx-1, insulin, and glucagon were analyzed in amniotic-derived cells, while expression levels of glucagon, insulin, HNF-3 beta, and Pdx-1 were analyzed in pancreas-derived cells. Samples of 20 ng cDNA was used in each Real-Time PCR reaction. RT-PCR was performed on the Applied Biosystems 7500, according to the methods described in Example 15. The data were analyzed using the accompanying software.
Real-time PCR amplifcation and quantitative analysis. Unless otherwise stated, all reagents were purchased from Applied Biosystems. Real-time PCR reactions were performed using the ABI PRISM™ 7500 Sequence Detection System. TAQMAN™ FAST UNIVERSAL PCR MASTER MIX™ (ABI, CA) was used with 20 ng of reverse transcribed RNA in a total reaction volume of 20 μl. Each cDNA sample was run in duplicate to allow correction of pipetting errors. Primers and FAM-labeled TAQMAN™ probes were used at concentrations of 200 nM. The level of expression for each target gene was normalized using the pre-developed Applied Biosystem's human glyceraldehyde-3-phosphate dehydrogenase (GAPDH) endogenous control kit. Primers and probes were designed using either ABI PRISM PRIMER EXPRESS™ software or a pre-developed ABI gene analysis kit. For each gene, either one of the primers or the probe were designed to be exon-boundary spanning. This eliminated the possibility of the primers/probe binding to any genomic DNA present. The primer and probe sets are listed as follows: Pdx-1 (Hs00426216), Insulin (Hs00355773), glucagon (Hs00174967), and FoxA2 (HNF 3-beta) (Hs00232764). The remaining primers were designed using the PRIMERS program (ABI, CA). After an initial 95° C. incubation for 20 sec, samples were cycled 40 times in two stages: a denaturation step at 95° C. for 3 sec, followed by an annealing/extension step at 60° C. for 30 sec. […]

[1] = 5.0 μM, following the second addition

`CC(/C=C/C(=O)NO)=C\[C@@H](C)C(=O)c1ccc(N(C)C)cc1` [trichostatin A] was tested, and the “HNF-3 beta gene expression” value (24 hrs) was “+++ (detectable at less than 35 cycles by RT-PCR with SE less than 0.9)”, the Insulin gene expression (24 hrs) was “nd (not detectable at >40 cycles by RT-PCR)” and the Pdx-1 gene expression (24 hrs) was “+++ (detectable at less than 35 cycles by RT-PCR with SE less than 0.9)”. The glucagon gene expression (24 hrs) was “+++ (detectable at less than 35 cycles by RT-PCR with SE less than 0.9)”, the “HNF-3 beta gene expression” value (48 hrs) was “+++ (detectable at less than 35 cycles by RT-PCR with SE less than 0.9)” and the Insulin gene expression (48 hrs) was “nd (not detectable at >40 cycles by RT-PCR)”. For the same compound, the Pdx-1 gene expression (48 hrs) was “+++ (detectable at less than 35 cycles by RT-PCR with SE less than 0.9)”, the glucagon gene expression (48 hrs) was “+++ (detectable at less than 35 cycles by RT-PCR with SE less than 0.9)” and the “HNF-3 beta gene expression” value (72 hrs) was “nd (not detectable at >40 cycles by RT-PCR)”. The Insulin gene expression (72 hrs) was “+++ (detectable at less than 35 cycles by RT-PCR with SE less than 0.9)”, the Pdx-1 gene expression (72 hrs) was “nd (not detectable at >40 cycles by RT-PCR)” and the glucagon gene expression (72 hrs) was “+ (detectable between 35 and 40 cycles by RT-PCR)”. The “HNF-3 beta gene expression” value (96 hrs) was “nd (not detectable at >40 cycles by RT-PCR)”, the Insulin gene expression (96 hrs) was “nd (not detectable at >40 cycles by RT-PCR)” and the Pdx-1 gene expression (96 hrs) was “nd (not detectable at >40 cycles by RT-PCR)”. The glucagon gene expression (96 hrs) was “+ (detectable between 35 and 40 cycles by RT-PCR)”, the “HNF-3 beta gene expression” value (120 hrs) was “+++ (detectable at less than 35 cycles by RT-PCR with SE less than 0.9)” and the Insulin gene expression (120 hrs) was “nd (not detectable at >40 cycles by RT-PCR)”. The Pdx-1 gene expression (120 hrs) was “+++ (detectable at less than 35 cycles by RT-PCR with SE less than 0.9)”, the glucagon gene expression (120 hrs) was “+ (detectable between 35 and 40 cycles by RT-PCR)” and the “Pdx-1 RT-PCR detection cycle” value (5.0 μM, 48 hours) was 32 cycles. For the same compound, the “glucagon RT-PCR detection cycle” value (5.0 μM, 48 hours) was 33 cycles, the “glucagon RT-PCR detection cycle” value (5.0 μM, after trichostatin A was removed) was 38 cycles and the “Insulin RT-PCR detection cycle” value (5.0 μM, following the medium change) was 33 cycles. The “Pdx-1 RT-PCR detection cycle” value [1] was 32 cycles, the “glucagon RT-PCR detection cycle” value [1] was 37 cycles and the “glucagon RT-PCR detection cycle” value (5.0 μM, following treatment) was 35 cycles. For the same compound, the “HNF-3 beta RT-PCR detection cycle” value (5.0 μM, following treatment until removal) was 34 cycles and the “HNF-3 beta RT-PCR detection cycle” value (5.0 μM, when trichostatin A was added again) was 33 cycles.
